Series [1] is described as follows: Exposure of samples to 100% relative humidity at room temperature. Format: physicochemical. The source says:
The Ziprasidone-hydrobromide Form III (hemihydrate) sample was also stable in these circumstances.

A short description of series [2]: Stability and water uptake from air at normal humidity. Format: physicochemical. The settings on record: normal circumstances. The text has this:
During our experimental work we prepared different ziprasidone hydrobromide compounds and forms. […] In suitable circumstances both the anhydrate and the monohydrate of ziprasidone hydrobromide can be prepared in stable forms, at normal humidity these products can easily be handled, meanwhile their water and active ingredient contents remain constant. The hemihydrate of ziprasidone hydrobromide can also be prepared reproducibly.
1.69 g crystalline 5-{2-[4-(1,2-benzisothiazol-3-yl)-1-piperazinyl]-ethyl}-6-chloro-1,3-dihydro-2H-indol-2-one-hydrobromide anhydrate (ziprasidone-hydrobromide anhydrate) in a form of Ziprasidone-hydrobromide Form II was obtained.

The nature of series [3]: Thermogravimetric (TG) and differential scanning calorimetric (DSC) investigation during heating. Format: physicochemical. The source says:
The Ziprasidone-hydrobromide Form III (hemihydrate) sample was also stable in these circumstances. Thermogravimetry (TG) Parameters: [table] Differential Scanning Calorimetry (DSC) Parameters: [table]
(In general: Differential scanning calorimetry records heat flow against a reference as temperature is scanned.)

For series [4] the following is noted: 31% relative humidity, after 4 hours; starting water content 0.19%; cited from earlier work.

Structures can show the parent of a compound that is named as a salt. Where two headings read alike, the source gives them in different places.

As for `O=C1Cc2cc(CCN3CCN(c4nsc5ccccc45)CC3)c(Cl)cc2N1` [Ziprasidone-hydrobromide Form III, 5-{2-[4-(1,2-benzisothiazol-3-yl)-1-piperazinyl]-ethyl}-6-chloro-1,3-dihydro-2H-indol-2-one-hydrobromide hemihydrate], in series [1] (hemihydrate), the “stability / change of water content in 100% relative humidity area” value is reported as “stable”.
For the molecule `O=C1Cc2cc(CCN3CCN(c4nsc5ccccc45)CC3)c(Cl)cc2N1` [Ziprasidone-hydrobromide Form II, 5-{2-[4-(1,2-benzisothiazol-3-yl)-1-piperazinyl]-ethyl}-6-chloro-1,3-dihydro-2H-indol-2-one-hydrobromide anhydrate], the “stability / change of water content in 100% relative humidity area” value in series [1] was “does not change significantly”. In series [2], the “water absorption from air” value is given as “does not absorb water from the air”.
Take `O=C1Cc2cc(CCN3CCN(c4nsc5ccccc45)CC3)c(Cl)cc2N1` [Ziprasidone-hydrobromide Form I, 5-{2-[4-(1,2-benzisothiazol-3-yl)-1-piperazinyl]-ethyl}-6-chloro-1,3-dihydro-2H-indol-2-one-hydrobromide monohydrate]: the “stability / change of water content in 100% relative humidity area” value in series [1] (monohydrate) was “does not change significantly”. Moreover, the “temperature at which water is lost during heating” value in series [3] (TG and DSC, during heating) is 40-60 °C. Moreover, in series [3] (after heating, transforms back to monohydrate of the original crystal structure), the “re-uptake of water after the heat-effect” value is “readily takes back the water”.
Turning to `Cl.O=C1Cc2cc(CCN3CCN(c4nsc5ccccc45)CC3)c(Cl)cc2N1` [ziprasidone hydrochloride anhydrate, reference compound], the “water absorption from air” value in series [2] is on record as “adsorbed water rapidly from air”. Moreover, the “water content after exposure to humid air” value in series [4] is recorded as 2.55%.

The record behind these values is US20100081668A1, “POLYMORPHS OF 5--6-CHLORO-1,3-DIHYDRO-2H-INDOL-2-ONE HYDROBROMIDE AND PROCESSES FOR PREPARATION THEREOF” (priority 2006, published 2010).
